Test system: 171881-019-R-J1-PDC tumor spheroids, viability
Assay: Anticancer human tumor 171881-019-R-J1-PDC patient-derived invasive breast carcinoma cell line growth inhibition [GQUAD]
Details: spheroids with HUVEC and MSC; for IC50: curve of first compound; for viability, T/C: stronger effect = lower value
Description: DNA G-quadruplex Stabilizer Agents in Combinations in Complex Spheroids
A high-throughput screen of multi-cell type tumor spheroids was designed to identify active combinations of DNA G-quadruplex stabilizer agents and targeted small molecules. Complex spheroids include a stromal component modeled by human endothelial cells (HUVEC) and fibroblasts modeled by human mesenchymal stem cells (MSCs). The concentration ranges selected for each drug and investigational agent were based upon clinically achievable concentrations if the clinical Cmax of the agent was known.
Compounds. The drugs and investigational agents: pidnarulex (CX-5461; NSC782164), APTO-253 (NSC789042), BRACO-19 (NSC847499), peposertib (NSC802822), ceralasertib (NSC780249), elimusertib (NSC800525), camonsertib (NSC841442), AZD-1390 (NSC803789), olaparib (NSC753686), talazoparib (NSC767125), ART-558 (NSC835418), sotorasib (NSC818433), MRTX-1133 (NSC836407), SN-38 (NSC673596), topotecan (NSC609699), etoposide (NSC141540), doxorubicin (NSC123127), gemcitabine (NSC613327), 5-fluorouracil (NSC19893), paclitaxel (NSC125973), vemurafenib (NSC761431), panobinostat (NSC761190), R-306465 (JNJ-16241199; NSC773264), adavosertib (NSC754352), TP-3654 (NSC805149), carboplatin (NSC241240), KSQ-4279 (NSC840948), and staurosporine (NSC755774) were obtained from the National Cancer Institute (NCI) Developmental Therapeutics Program Chemical Repository (34). The FDA-approved anticancer drug set is available from the NCI Developmental Therapeutics Program. […] The stock solutions were prepared in dimethyl sulfoxide (DMSO, Sigma-Aldrich, St. Louis, MO, cat. D2650) at 800-fold the tested concentration and stored at -70 degrees C prior to their use. All drugs and investigational agents were tested over a range starting from a high concentration at or near the clinical Cmax and decreasing in half-log increments. If the clinical Cmax for an agent had not been determined, the highest concentration tested was 10 microM.
2.3 Cell Culture. All cells were maintained in an incubator at 37 degrees C and 5% CO2 with 95% humidity. The PDC lines were cultured according to standard operating procedures established by the NCI PDMR. All PDCs were thawed and cultured in Matrigel-coated flasks prepared with a working solution of 1X Ham's F-12 nutrient mix, without supplementation (Invitrogen, cat. 11765054), 100 U/mL penicillin-streptomycin (Invitrogen, cat. 15140122), and 2.5% Matrigel (Corning Inc., cat. 354248) for the first three passages. The 857933-349-R-J2-PDC line was cultured in 6C/Colon 1B media, which includes advanced DMEM/F-12 (Thermo Fisher Scientific, cat. 12634028), 10 mM HEPES (Thermo Fisher Scientific, cat. 15630080), 1X GlutaMAX supplement (Thermo Fisher Scientific, cat. 35050061), 0.1 mg/mL primocin (InvivoGen, cat. ant-pm-2), 10% defined fetal bovine serum, heat inactivated (HyClone Laboratories Inc., cat. SH30070.03HI), 50% L-WRN conditioned media (ATCC, cat. CRL-3276), 1.25 mM N-Acetyl-L-cysteine (Sigma-Aldrich, cat. A9165), 10 mM nicotinamide (Sigma-Aldrich, cat. N0636), 1X B-27 supplement (Thermo Fisher Scientific, cat. 17504044), 1X N-2 supplement (Thermo Fisher Scientific, cat. 17502048), 10 microM Y-27632 dihydrochloride (Tocris Bioscience, cat. 1254), and 50 ng/mL human EGF recombinant protein (Thermo Fisher Scientific, cat. PHG0311). The 485176-168-R4-J1-PDC line was cultured in Panc media, which includes all 6C/Colon 1B media components plus 100 ng/mL human FGF-10 (Thermo Fisher Scientific, cat. 100-26), 500 nM SB-431542 (Selleckchem, cat. S1067), and gastrin (Tocris, cat. 3006).
[…]

[1] = second compound 0.0316 µM, first compound 0.0316 µM
[2] = second compound 0.0316 µM, first compound 0.1 µM
[3] = second compound 0.0316 µM, first compound 0.316 µM
[4] = second compound 0.0316 µM, first compound 1 µM
[5] = second compound 0.0316 µM, first compound 3.16 µM
[6] = second compound 0.0316 µM, first compound 10 µM
[7] = second compound 0.1 µM, first compound 0.0316 µM
[8] = second compound 0.1 µM, first compound 0.1 µM
[9] = second compound 0.1 µM, first compound 0.316 µM
[10] = second compound 0.1 µM, first compound 1 µM
[11] = second compound 0.1 µM, first compound 3.16 µM
[12] = second compound 0.1 µM, first compound 10 µM
[13] = second compound 0.316 µM, first compound 0.0316 µM
[14] = second compound 0.316 µM, first compound 0.1 µM
[15] = second compound 0.316 µM, first compound 0.316 µM
[16] = second compound 0.316 µM, first compound 1 µM
[17] = second compound 0.316 µM, first compound 3.16 µM
[18] = second compound 0.316 µM, first compound 10 µM
[19] = second compound 1 µM, first compound 0.0316 µM
[20] = second compound 1 µM, first compound 0.1 µM
[21] = second compound 1 µM, first compound 0.316 µM
[22] = second compound 1 µM, first compound 1 µM
[23] = second compound 1 µM, first compound 3.16 µM
[24] = second compound 1 µM, first compound 10 µM
[25] = second compound 3.16 µM, first compound 0.0316 µM
[26] = second compound 3.16 µM, first compound 0.1 µM
[27] = second compound 3.16 µM, first compound 0.316 µM
[28] = second compound 3.16 µM, first compound 1 µM
[29] = second compound 3.16 µM, first compound 3.16 µM
[30] = second compound 3.16 µM, first compound 10 µM
[31] = second compound 10 µM, first compound 0.0316 µM
[32] = second compound 10 µM, first compound 0.1 µM
[33] = second compound 10 µM, first compound 0.316 µM
[34] = second compound 10 µM, first compound 1 µM
[35] = second compound 10 µM, first compound 3.16 µM
[36] = second compound 10 µM, first compound 10 µM
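Note: spheroids exposed to compounds for 7 days.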
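Throughout, for viability, T/C: 100% = DMSO vehicle control viability.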

C#Cc1c(F)ccc2cc(O)cc(-c3ncc4c(N5CC6CCC(C5)N6)nc(OCC56CCCN5CC(F)C6)nc4c3F)c12 (centres undefined) + Cc1cnc(CNC(=O)c2c(=O)c3ccc(N4CCCN(C)CC4)nc3n3c2sc2ccccc23)cn1
IC50 (second compound 0.0316 µM): 0.425 µM
IC50 (second compound 0.1 µM): 0.403 µM
IC50 (second compound 0.316 µM): 0.405 µM
IC50 (second compound 1 µM): 0.482 µM
IC50 (second compound 3.16 µM): 0.286 µM
IC50 (second compound 10 µM): 0.148 µM
viability, T/C [1]: 96.7%
viability, T/C [2]: 71.8%
viability, T/C [3]: 52.7%
viability, T/C [4]: 42.3%
viability, T/C [5]: 29.4%
viability, T/C [6]: 26%
viability, T/C [7]: 75.7%
viability, T/C [8]: 66%
viability, T/C [9]: 52%
viability, T/C [10]: 41.3%
viability, T/C [11]: 30.1%
viability, T/C [12]: 27.4%
viability, T/C [13]: 68%
viability, T/C [14]: 62.3%
viability, T/C [15]: 51.7%
viability, T/C [16]: 42%
viability, T/C [17]: 37.1%
viability, T/C [18]: 32.3%
viability, T/C [19]: 64.6%
viability, T/C [20]: 56.9%
viability, T/C [21]: 55.6%
viability, T/C [22]: 44.2%
viability, T/C [23]: 41%
viability, T/C [24]: 40.9%
viability, T/C [25]: 60.3%
viability, T/C [26]: 52.5%
viability, T/C [27]: 52.9%
viability, T/C [28]: 44.3%
viability, T/C [29]: 41.5%
viability, T/C [30]: 41.5%
viability, T/C [31]: 52.1%
viability, T/C [32]: 54.5%
viability, T/C [33]: 49.4%
viability, T/C [34]: 41.2%
viability, T/C [35]: 44.8%
viability, T/C [36]: 43.5%

Nc1ccn(C2OC(CO)C(O)C2(F)F)c(=O)n1 (centres undefined) + Cc1cnc(CNC(=O)c2c(=O)c3ccc(N4CCCN(C)CC4)nc3n3c2sc2ccccc23)cn1
IC50 (second compound 0.0316 µM): < 0.0316 µM
IC50 (second compound 0.1 µM): < 0.0316 µM
IC50 (second compound 0.316 µM): < 0.0316 µM
IC50 (second compound 1 µM): < 0.0316 µM
IC50 (second compound 3.16 µM): < 0.0316 µM
IC50 (second compound 10 µM): < 0.0316 µM
viability, T/C [1]: 27.8%
viability, T/C [2]: 29.9%
viability, T/C [3]: 39.4%
viability, T/C [4]: 38%
viability, T/C [5]: 33.7%
viability, T/C [6]: 31.2%
viability, T/C [7]: 29.8%
viability, T/C [8]: 31.9%
viability, T/C [9]: 37.1%
viability, T/C [10]: 41.4%
viability, T/C [11]: 37%
viability, T/C [12]: 33.8%
viability, T/C [13]: 31.5%
viability, T/C [14]: 36.2%
viability, T/C [15]: 44%
viability, T/C [16]: 37.9%
viability, T/C [17]: 39.1%
viability, T/C [18]: 34.7%
viability, T/C [19]: 35%
viability, T/C [20]: 35.6%
viability, T/C [21]: 42.7%
viability, T/C [22]: 41.2%
viability, T/C [23]: 44.2%
viability, T/C [24]: 37.3%
viability, T/C [25]: 36.2%
viability, T/C [26]: 38.6%
viability, T/C [27]: 43.8%
viability, T/C [28]: 43.3%
viability, T/C [29]: 44.9%
viability, T/C [30]: 40%
viability, T/C [31]: 33.2%
viability, T/C [32]: 37.3%
viability, T/C [33]: 39.1%
viability, T/C [34]: 45.6%
viability, T/C [35]: 46%
viability, T/C [36]: 40.8%

Source: PubChem BioAssay AID2060498 (Molecular Pharmacology Branch, DTP, NCI, 2025)
